Reference: the kinase profiling compilation of Christmann-Franck et al. (2016)

Key:
Assay in all cases: KINOMEscan competition binding
Conditions in all cases: compound 10.0 µM
[1] = molecular target: TNK2 (human) (UniProt Q07912)
[2] = molecular target: CAMK2B (human) (UniProt Q13554)
[3] = molecular target: STK4 (human) (UniProt Q13043)
[4] = molecular target: ACVR1B (human) (UniProt P36896)
[5] = molecular target: PRKAA2 (human) (UniProt P54646)
[6] = molecular target: ROS1 (human) (UniProt P08922)
[7] = molecular target: CASK (human) (UniProt O14936)
[8] = molecular target: PTK2 (human) (UniProt Q05397)
PTK2 (human), sequence (Q05397 whole entry, looked up): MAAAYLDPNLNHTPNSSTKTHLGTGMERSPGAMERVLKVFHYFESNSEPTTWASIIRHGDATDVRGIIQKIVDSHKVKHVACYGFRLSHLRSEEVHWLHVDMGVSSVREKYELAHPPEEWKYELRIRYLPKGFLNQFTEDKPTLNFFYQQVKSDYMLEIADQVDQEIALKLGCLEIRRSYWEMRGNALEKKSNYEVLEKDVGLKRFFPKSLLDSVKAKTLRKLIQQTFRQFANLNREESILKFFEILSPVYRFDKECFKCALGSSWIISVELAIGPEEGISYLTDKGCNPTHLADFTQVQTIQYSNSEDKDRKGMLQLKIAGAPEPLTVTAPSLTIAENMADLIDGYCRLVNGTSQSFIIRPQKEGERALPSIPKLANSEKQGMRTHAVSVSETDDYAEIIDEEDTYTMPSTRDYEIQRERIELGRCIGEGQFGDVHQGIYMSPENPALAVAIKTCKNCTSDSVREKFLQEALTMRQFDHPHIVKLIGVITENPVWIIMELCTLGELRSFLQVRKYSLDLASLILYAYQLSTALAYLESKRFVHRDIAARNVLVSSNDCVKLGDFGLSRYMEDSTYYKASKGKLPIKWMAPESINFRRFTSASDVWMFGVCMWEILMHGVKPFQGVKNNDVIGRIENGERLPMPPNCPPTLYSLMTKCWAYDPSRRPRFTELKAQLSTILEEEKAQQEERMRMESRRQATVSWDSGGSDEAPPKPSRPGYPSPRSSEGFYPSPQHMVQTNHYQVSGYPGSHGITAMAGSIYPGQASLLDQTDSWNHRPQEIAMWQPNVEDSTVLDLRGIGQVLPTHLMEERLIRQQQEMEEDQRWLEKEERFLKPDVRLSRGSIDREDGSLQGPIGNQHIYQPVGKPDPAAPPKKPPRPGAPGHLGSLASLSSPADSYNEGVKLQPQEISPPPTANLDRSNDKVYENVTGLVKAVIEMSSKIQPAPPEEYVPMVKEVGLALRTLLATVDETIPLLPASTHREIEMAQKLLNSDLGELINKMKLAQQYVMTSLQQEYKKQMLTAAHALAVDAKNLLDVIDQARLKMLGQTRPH

[9] = molecular target: NEK7 (human) (UniProt Q8TDX7)
[10] = molecular target: RPS6KA6 KD1 (human) (UniProt Q9UK32)
[11] = molecular target: ADCK3 (human) (UniProt Q8NI60)
[12] = molecular target: PRKD2 (human) (UniProt Q9BZL6)
[13] = molecular target: ERN1 (human) (UniProt O75460)
[14] = molecular target: CLK3 (human) (UniProt P49761)
[15] = molecular target: CDK2 (human) (UniProt P24941)
[16] = molecular target: MAPK3 (human) (UniProt P27361)
[17] = molecular target: HIPK3 (human) (UniProt Q9H422)
HIPK3 (human), sequence (Q9H422 whole entry, looked up): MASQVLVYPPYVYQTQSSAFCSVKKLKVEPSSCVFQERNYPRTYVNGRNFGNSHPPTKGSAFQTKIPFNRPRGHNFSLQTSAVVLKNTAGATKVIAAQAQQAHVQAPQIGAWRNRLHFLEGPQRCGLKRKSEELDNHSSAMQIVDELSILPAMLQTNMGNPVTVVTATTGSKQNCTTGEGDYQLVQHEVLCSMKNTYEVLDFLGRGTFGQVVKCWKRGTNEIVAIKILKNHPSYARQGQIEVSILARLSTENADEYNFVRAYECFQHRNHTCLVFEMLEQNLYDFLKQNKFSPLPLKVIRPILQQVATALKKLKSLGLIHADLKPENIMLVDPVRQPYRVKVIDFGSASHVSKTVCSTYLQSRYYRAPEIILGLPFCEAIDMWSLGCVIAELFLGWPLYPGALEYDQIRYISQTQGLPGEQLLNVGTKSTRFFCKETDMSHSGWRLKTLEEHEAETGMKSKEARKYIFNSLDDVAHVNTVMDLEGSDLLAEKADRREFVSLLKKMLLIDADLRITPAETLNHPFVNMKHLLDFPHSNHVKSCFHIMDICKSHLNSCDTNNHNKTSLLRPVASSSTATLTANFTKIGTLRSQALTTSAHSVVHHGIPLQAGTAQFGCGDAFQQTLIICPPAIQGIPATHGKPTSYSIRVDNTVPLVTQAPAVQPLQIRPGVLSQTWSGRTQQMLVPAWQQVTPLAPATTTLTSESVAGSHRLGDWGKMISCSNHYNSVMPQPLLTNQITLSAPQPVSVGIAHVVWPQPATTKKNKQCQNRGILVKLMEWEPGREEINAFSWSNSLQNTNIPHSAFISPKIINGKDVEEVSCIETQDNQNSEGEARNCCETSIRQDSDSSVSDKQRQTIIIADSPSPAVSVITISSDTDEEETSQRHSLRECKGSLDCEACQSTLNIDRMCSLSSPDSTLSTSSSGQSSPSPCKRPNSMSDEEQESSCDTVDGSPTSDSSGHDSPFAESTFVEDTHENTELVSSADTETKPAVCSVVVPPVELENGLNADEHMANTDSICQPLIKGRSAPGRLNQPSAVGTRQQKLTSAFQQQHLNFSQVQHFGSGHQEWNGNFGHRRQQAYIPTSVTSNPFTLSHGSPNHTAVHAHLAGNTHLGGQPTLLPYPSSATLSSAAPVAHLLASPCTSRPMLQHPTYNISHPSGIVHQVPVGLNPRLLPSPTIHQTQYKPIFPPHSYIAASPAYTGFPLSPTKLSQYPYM

[18] = molecular target: BMPR2 (human) (UniProt Q13873)
[19] = molecular target: MAP2K6 (human) (UniProt P52564)
MAP2K6 (human), sequence (P52564 whole entry, looked up): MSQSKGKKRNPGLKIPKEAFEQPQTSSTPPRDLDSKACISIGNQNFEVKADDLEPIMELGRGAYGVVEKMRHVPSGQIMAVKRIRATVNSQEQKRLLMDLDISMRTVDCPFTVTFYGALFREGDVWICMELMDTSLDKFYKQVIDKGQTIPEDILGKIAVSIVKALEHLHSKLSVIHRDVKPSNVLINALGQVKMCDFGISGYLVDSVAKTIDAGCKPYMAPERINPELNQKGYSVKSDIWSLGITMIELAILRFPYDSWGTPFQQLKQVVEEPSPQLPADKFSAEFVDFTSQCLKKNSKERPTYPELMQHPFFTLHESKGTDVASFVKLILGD

[20] = molecular target: SRPK2 (human) (UniProt P78362)
[21] = molecular target: DAPK3 (human) (UniProt O43293)
[22] = molecular target: KIT (human) (UniProt P10721)
[23] = molecular target: CDC42BPG (human) (UniProt Q6DT37)
[24] = test system: EGFR (human), P00533 [P753S; 747-752 del]
[25] = molecular target: CDKL3 (human) (UniProt Q8IVW4)
[26] = molecular target: HIPK2 (human) (UniProt Q9H2X6)
[27] = molecular target: EPHB4 (human) (UniProt P54760)
[28] = test system: MET (human), P08581 [M1250T]
[29] = molecular target: BMX (human) (UniProt P51813)
[30] = molecular target: SYK (human) (UniProt P43405)
[31] = molecular target: STK24 (human) (UniProt Q9Y6E0)
STK24 (human), sequence (Q9Y6E0 whole entry, looked up): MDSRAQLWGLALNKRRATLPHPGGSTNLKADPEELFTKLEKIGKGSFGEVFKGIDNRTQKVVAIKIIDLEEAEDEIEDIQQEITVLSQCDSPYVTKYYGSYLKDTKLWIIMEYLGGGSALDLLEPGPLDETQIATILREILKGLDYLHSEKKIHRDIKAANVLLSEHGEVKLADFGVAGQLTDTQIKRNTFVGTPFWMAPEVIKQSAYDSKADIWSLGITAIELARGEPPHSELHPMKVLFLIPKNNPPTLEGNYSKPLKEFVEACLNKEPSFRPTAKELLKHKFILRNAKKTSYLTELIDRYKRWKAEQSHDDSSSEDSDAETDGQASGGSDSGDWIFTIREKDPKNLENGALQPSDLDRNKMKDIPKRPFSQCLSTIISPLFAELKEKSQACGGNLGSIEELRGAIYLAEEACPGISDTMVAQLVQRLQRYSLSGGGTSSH

[32] = molecular target: PIP4K2C (human) (UniProt Q8TBX8)
PIP4K2C (human), sequence (Q8TBX8 whole entry, looked up): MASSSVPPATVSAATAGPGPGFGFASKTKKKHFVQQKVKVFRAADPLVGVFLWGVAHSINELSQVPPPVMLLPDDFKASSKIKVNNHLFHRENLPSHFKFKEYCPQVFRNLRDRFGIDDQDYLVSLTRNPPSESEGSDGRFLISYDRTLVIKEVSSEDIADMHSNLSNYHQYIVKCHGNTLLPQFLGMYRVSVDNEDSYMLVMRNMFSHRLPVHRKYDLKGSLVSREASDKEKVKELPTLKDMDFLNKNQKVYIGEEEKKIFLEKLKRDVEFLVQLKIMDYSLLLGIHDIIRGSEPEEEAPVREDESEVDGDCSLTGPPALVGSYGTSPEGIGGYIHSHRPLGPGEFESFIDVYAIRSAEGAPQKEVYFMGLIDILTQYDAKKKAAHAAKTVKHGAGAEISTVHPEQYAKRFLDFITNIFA

[33] = molecular target: MAP4K5 (human) (UniProt Q9Y4K4)
[34] = molecular target: BLK (human) (UniProt P51451)
[35] = molecular target: LCK (human) (UniProt P06239)
[36] = molecular target: MAPK14 (human) (UniProt Q16539)
[37] = molecular target: CDK8 (human) (UniProt P49336)
[38] = molecular target: TIE1 (human) (UniProt P35590)
[39] = molecular target: MAPK8 (human) (UniProt P45983)
[40] = molecular target: CDK13 (human) (UniProt Q14004)
[41] = molecular target: SRC (human) (UniProt P12931)
[42] = molecular target: CRK2 (P.falciparum) (UniProt P61075)
CRK2 (P.falciparum), sequence (P61075 whole entry, looked up): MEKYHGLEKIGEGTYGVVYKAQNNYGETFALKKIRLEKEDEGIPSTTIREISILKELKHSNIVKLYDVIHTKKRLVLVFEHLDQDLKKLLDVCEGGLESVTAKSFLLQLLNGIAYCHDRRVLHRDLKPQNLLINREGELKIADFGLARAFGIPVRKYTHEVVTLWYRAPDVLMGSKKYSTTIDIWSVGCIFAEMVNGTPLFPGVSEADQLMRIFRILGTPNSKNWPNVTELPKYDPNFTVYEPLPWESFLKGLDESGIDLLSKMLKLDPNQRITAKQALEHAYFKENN

CAMK2B (human), sequence (Q13554 whole entry, looked up): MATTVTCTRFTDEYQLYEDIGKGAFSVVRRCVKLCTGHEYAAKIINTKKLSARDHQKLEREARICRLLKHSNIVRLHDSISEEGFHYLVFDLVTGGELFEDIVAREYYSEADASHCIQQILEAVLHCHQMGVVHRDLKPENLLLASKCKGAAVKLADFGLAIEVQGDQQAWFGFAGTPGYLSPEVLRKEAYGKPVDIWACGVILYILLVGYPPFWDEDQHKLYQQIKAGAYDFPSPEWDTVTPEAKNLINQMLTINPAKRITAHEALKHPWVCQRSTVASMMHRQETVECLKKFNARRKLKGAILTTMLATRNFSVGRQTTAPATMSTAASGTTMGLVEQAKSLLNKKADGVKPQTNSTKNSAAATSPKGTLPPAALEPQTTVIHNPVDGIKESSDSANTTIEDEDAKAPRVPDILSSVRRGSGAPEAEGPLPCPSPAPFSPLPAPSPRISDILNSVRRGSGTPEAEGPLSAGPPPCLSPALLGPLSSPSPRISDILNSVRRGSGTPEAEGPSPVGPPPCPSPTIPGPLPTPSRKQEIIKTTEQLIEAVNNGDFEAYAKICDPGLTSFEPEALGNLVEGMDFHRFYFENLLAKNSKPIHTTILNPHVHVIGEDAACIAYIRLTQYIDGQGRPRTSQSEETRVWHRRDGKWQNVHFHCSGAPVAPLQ
PRKAA2 (human), sequence (P54646 whole entry, looked up): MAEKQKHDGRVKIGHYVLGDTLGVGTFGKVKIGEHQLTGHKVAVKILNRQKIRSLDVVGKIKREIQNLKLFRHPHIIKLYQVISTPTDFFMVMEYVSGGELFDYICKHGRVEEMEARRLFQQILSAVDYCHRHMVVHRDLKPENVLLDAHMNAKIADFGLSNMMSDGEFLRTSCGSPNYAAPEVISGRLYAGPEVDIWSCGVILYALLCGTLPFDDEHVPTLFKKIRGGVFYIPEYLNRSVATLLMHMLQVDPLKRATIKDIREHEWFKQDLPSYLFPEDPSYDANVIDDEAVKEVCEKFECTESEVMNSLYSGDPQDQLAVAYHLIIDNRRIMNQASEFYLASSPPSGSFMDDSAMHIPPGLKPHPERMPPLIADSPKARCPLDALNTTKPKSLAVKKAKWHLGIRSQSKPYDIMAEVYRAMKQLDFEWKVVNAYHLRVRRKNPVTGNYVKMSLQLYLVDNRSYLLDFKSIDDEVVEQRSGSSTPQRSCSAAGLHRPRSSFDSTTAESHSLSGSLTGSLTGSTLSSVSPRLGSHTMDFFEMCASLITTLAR

**Q.** Which kinase still bound, per cent of control [1] does the source give for `Cc1cc([C@@H](C)Nc2ccccc2C(=O)O)c2nc(N3CCOCC3)cc(=O)n2c1` here?
**A.** 100%

**Q.** And the kinase still bound, per cent of control [2]?
**A.** 89%

**Q.** And the kinase still bound, per cent of control [3]?
**A.** 72%

**Q.** And the kinase still bound, per cent of control [4]?
**A.** 100%

**Q.** And the kinase still bound, per cent of control [5]?
**A.** 91%

**Q.** And the kinase still bound, per cent of control [6]?
**A.** 84%

**Q.** And the kinase still bound, per cent of control [7]?
**A.** 100%

**Q.** What about the kinase still bound, per cent of control [8] of the same molecule?
**A.** 80%

**Q.** What about the kinase still bound, per cent of control [9] of the same molecule?
**A.** 98%

**Q.** And the kinase still bound, per cent of control [10]?
**A.** 80%

**Q.** And the kinase still bound, per cent of control [11]?
**A.** 70%

**Q.** And the kinase still bound, per cent of control [12]?
**A.** 97%

**Q.** What about the kinase still bound, per cent of control [13] of the same molecule?
**A.** 100%

**Q.** And the kinase still bound, per cent of control [14]?
**A.** 95%

**Q.** And the kinase still bound, per cent of control [15]?
**A.** 64%

**Q.** What about the kinase still bound, per cent of control [16] of the same molecule?
**A.** 94%

**Q.** What about the kinase still bound, per cent of control [17] of the same molecule?
**A.** 68%

**Q.** And the kinase still bound, per cent of control [18]?
**A.** 84%

**Q.** And the kinase still bound, per cent of control [19]?
**A.** 91%

**Q.** What about the kinase still bound, per cent of control [20] of the same molecule?
**A.** 88%

**Q.** And the kinase still bound, per cent of control [21]?
**A.** 78%

**Q.** What about the kinase still bound, per cent of control [22] of the same molecule?
**A.** 69%

**Q.** And the kinase still bound, per cent of control [23]?
**A.** 99%

**Q.** What about the kinase still bound, per cent of control [24] of the same molecule?
**A.** 100%

**Q.** What about the kinase still bound, per cent of control [25] of the same molecule?
**A.** 96%

**Q.** What about the kinase still bound, per cent of control [26] of the same molecule?
**A.** 77%

**Q.** What about the kinase still bound, per cent of control [27] of the same molecule?
**A.** 95%

**Q.** What about the kinase still bound, per cent of control [28] of the same molecule?
**A.** 67%

**Q.** And the kinase still bound, per cent of control [29]?
**A.** 82%

**Q.** And the kinase still bound, per cent of control [30]?
**A.** 90%

**Q.** What about the kinase still bound, per cent of control [31] of the same molecule?
**A.** 85%

**Q.** And the kinase still bound, per cent of control [32]?
**A.** 94%

**Q.** And the kinase still bound, per cent of control [33]?
**A.** 92%

**Q.** What about the kinase still bound, per cent of control [34] of the same molecule?
**A.** 100%

**Q.** What about the kinase still bound, per cent of control [35] of the same molecule?
**A.** 81%

**Q.** And the kinase still bound, per cent of control [36]?
**A.** 100%

**Q.** And the kinase still bound, per cent of control [37]?
**A.** 100%

**Q.** What about the kinase still bound, per cent of control [38] of the same molecule?
**A.** 100%

**Q.** What about the kinase still bound, per cent of control [39] of the same molecule?
**A.** 100%

**Q.** And the kinase still bound, per cent of control [40]?
**A.** 100%

**Q.** What about the kinase still bound, per cent of control [41] of the same molecule?
**A.** 100%

**Q.** What about the kinase still bound, per cent of control [42] of the same molecule?
**A.** 92%
